From US20260028390A1, “ALPHA1-ANTITRYPSIN FOR USE IN THE TREATMENT OF DISEASES OR DISORDERS OF THE NERVOUS SYSTEM SUCH AS CHRONIC INFLAMMATORY DEMYELINATING POLYNEUROPATHY” (Ageronix SA, priority 2022, published 2026)
“And” between values parts separate entries of the source, which are not always exact repeats. Equal values may be shown once.

Tests used:
IL-6 = experiment: Human IL-6 immunoassay on SH-SY5Y cell supernatant; format: cell-based; settings: medium from cells treated with AAT vs 6-OHDA induced, not significant
Method: Cells were treated for 24 hours with the neurotoxin 6-hydroxydopamine (6-OHDA, Sigma Aldrich 162957) at 50, 100 μM concentrations alone or in combination with AAT 25 μM (AAT plasma derived, Sigma Aldrich batch A9024). Cells treated with AAT alone or in combination with 6-OHDA for 24 hours, were then incubated with fresh AAT for additional 24 hours. Control cells were treated with PBS.
Human 11-6 immunoassay (R&D D6050) was performed on cells supernatant. Briefly, 40000 cells were plated in 24-well plate and treated the day after as described in paragraph “Cells and treatment”. At the end of the treatment, cells were washed with PBS and incubated with 2% FBS medium for 24 hours, then cell culture supernatants were collected and centrifuged to remove particulates. Assay procedure was performed as described by manufactured instructions, on standard and samples duplicates. Absorbance was measured at 450 nm using SpectraMax iD3 Microplate Reader. A standard curve was prepared from seven IL-6 standard dilutions and IL-6 sample concentrations determined.

[1] = test system: CMT1A mice B6.Cg-Tg(PMP22)C3Fbas/J; experiment: Grip strength, CMT mice treated with AAT 180 mg/kg/day sc; format: in vivo, mouse; settings: for Grip strength, group Mean: 8 animals
Method: CMT MOUSE MODEL: Non-humanized CMT1A mice B6.Cg-Tg(PMP22)C3Fbas/J (three copies of the PMP22 gene), three groups of 8 animals each.
DOSAGE: 180 mg/kg/day non-clinical grade AAT (Sigma)
ADMINISTRATION: Subcutaneous (SC) (bi-daily injection of 90 mg/kg)
Animals were received at 6 weeks of age and housed under controlled conditions for the duration of the study. The study comprised two groups of 8 transgenic mice (CMT mice) each and one group of 8 age matched wild type (WT) C57B16 mice, serving as positive control. […]
(§1) The efficacy parameters included: • neuromuscular performance (rotarod latency to fall and grip strength test), • sciatic nerve electrophysiology (CMAP amplitude and NCV) • cytokine (IL-6 and TNFα), as well as NfL analysis • sciatic nerve histology (number of axons and axonal diameter),
After the last treatment on Day 15, these tests were repeated. Animals were then left untreated for 2 additional weeks to evaluate the duration of the treatment effect. Following the 2-week treatment-free period until 12 weeks of age (Day 30), the behavioural and electrophysiological tests were repeated.

plasma IL-6 = experiment: Plasma IL-6, CMT mice treated with AAT 180 mg/kg/day sc; format: in vivo, mouse
Description: Animals were received at 6 weeks of age and housed under controlled conditions for the duration of the study. The study comprised two groups of 8 transgenic mice (CMT mice) each and one group of 8 age matched wild type (WT) C57B16 mice, serving as positive control. Animals were assigned to the following subcutaneous treatments twice daily at 7:00 AM and 7:00 PM for 2 weeks, starting from 8 weeks and up to 10 weeks of age: • Wild-type (WT, no disease) mice receiving vehicle, 0.9% NaCl (positive control) • CMT1A mice receiving vehicle, 0.9% NaCl (negative control) • CMT1A mice receiving AAT at 90 mg/kg per injection (daily dose 180 mg/kg)
as §1
As supportive information for the mode of action of AAT in CMT, plasma concentration of interleukin 6 (IL-6) and TNFα were measured at Day 1 (8 weeks), Day 15 (10 weeks) and Day 30 (12 weeks). At the same timepoints, plasma levels of the biomarker of nerve damage, NfL were determined.

CIDP mice [2] = experiment: Von Frey test (paw withdrawal threshold), CIDP mouse model; format: in vivo; settings: for Von Frey, paw withdrawal threshold (Mean ± SD): CIDP mice; for von Frey test, Paw withdrawal threshold, group MEAN: group mean of 4 animals; for von Frey test, Paw withdrawal threshold, Mean/animal: per animal; for von Frey test, Paw withdrawal threshold, Mean/animal / von Frey test, Paw withdrawal threshold, set 1 / von Frey test, Paw withdrawal threshold, set 2 / von Frey test, Paw withdrawal threshold, set 3: listed as hAAT; for von Frey test, Paw withdrawal threshold, set 1 / von Frey test, Paw withdrawal threshold, set 2 / von Frey test, Paw withdrawal threshold, set 3: raw data per animal
Method: (§2) C57BL/6 mice were received at 8 weeks of age and housed under controlled conditions for the duration of the study. Three groups of 4 animals each were assigned to the following subcutaneous treatments twice daily at 7:00 AM and 7:00 PM for 2 weeks, from 20 to 35 days after the start of disease induction: • Wild type (WT) mice receiving the vehicle, 0.9% NaCl (positive control) • CIDP mice receiving the vehicle, 0.9% NaCl (negative control) • CIDP mice receiving human AAT (AAT), 50 mg/kg per injection
(§3) Disease induction consisted in subcutaneous injection of mouse sciatic nerve homogenate in phosphate buffer saline (PBS)+Freund's adjuvant mixture at 10 mL/kg. For each treatment, 3 different body sites injections were performed. Control mice also received three subcutaneous injections of PBS+Freund's adjuvant at the same 3 different body sites.
(§4) On the first (Day 20) and last (Day 35) day of treatment, the neuromuscular and performance of animals was tested with a rotarod test, grip test and a sensory test using the Von Frey filament test, as well as sciatic nerve electrophysiology test. After the last treatment at Day 35, these tests were repeated, animals were sacrificed and the left sciatic nerve was sampled for histological evaluation of the number and size of […].

CIDP mice [3] = experiment: Grip strength test, CIDP mouse model; format: in vivo; settings: for Grip strength (Mean ± SD): CIDP mice; for Grip strength, group Mean: group mean of 4 animals; for Grip strength, Mean/animal: per animal; for Grip strength, Mean/animal / Grip strength, set 1 / Grip strength, set 2 / Grip strength, set 3: listed as hAAT; for Grip strength, set 1 / Grip strength, set 2 / Grip strength, set 3: raw data per animal
Method: as §2, §3, §4

CIDP mice [4] = experiment: Rotarod test, CIDP mouse model; format: in vivo; settings: for Rotarod latency (Mean ± SEM): CIDP mice; for Rotarod latency, group Mean: group mean of 4 animals; for Rotarod latency, Mean/animal: per animal; for Rotarod latency, Mean/animal / Rotarod latency, set 1 / Rotarod latency, set 2 / Rotarod latency, set 3: listed as hAAT; for Rotarod latency, set 1 / Rotarod latency, set 2 / Rotarod latency, set 3: raw data per animal
Method: as §2, §3, §4

[5] = 8 weeks old (baseline, Day 1), CMT1A + AAT
[6] = 10 weeks old (Day 15, after 2 weeks AAT 90 mg/kg sc twice daily)
[7] = 12 weeks old (Day 30, after 2-week treatment-free period)
[8] = baseline (6 weeks old), CMT + hAAT, individual animal
[9] = CIDP + AAT 50 mg/kg sc twice daily, Day 35
[10] = Day 35, AAT 50 mg/kg sc twice daily

alpha1-antitrypsin (AAT) protein
IL-6 in cell supernatant (IL-6): less concentration
Grip strength (Mean ± SD) [1, 5]: 3.35 ± 0.27 newtons
Grip strength, group Mean ([1]; 8 weeks old, CMT + hAAT 180 mg/kg/day SC): 4.81 NEWTONS
Grip strength (Mean ± SD) [1, 6]: 5.47 ± 1.11 newtons
grip strength vs untreated CMT animals ([1]; 12 weeks of age, after 2-week treatment-free period, P<0.05): significantly higher
Grip strength (Mean ± SD) [1, 7]: 3.87 ± 0.36 newtons
grip strength vs CMT mice not treated with AAT ([1]; CMT mice, AAT 90 mg/kg sc twice a day, 8 to 10 weeks of age, end of treatment): significant increase
Grip strength, group Mean ([1]; baseline (6 weeks old), CMT + hAAT): 5.54 NEWTONS
Grip strength, Mean/animal [1, 8]: 4.96 NEWTONS and 4.77 NEWTONS and 6.79 NEWTONS and 6.72 NEWTONS and 6.41 NEWTONS and 4.74 NEWTONS and 4.27 NEWTONS and 5.68 NEWTONS
Grip strength, set 1 [1, 8]: 6.56 NEWTONS and 5.62 NEWTONS and 7.24 NEWTONS and 5.90 NEWTONS and 4.97 NEWTONS and 4.35 NEWTONS and 6.08 NEWTONS and 6.51 NEWTONS
Grip strength, set 2 [1, 8]: 3.79 NEWTONS and 4.00 NEWTONS and 7.19 NEWTONS and 8.88 NEWTONS and 7.60 NEWTONS and 6.25 NEWTONS and 2.61 NEWTONS and 3.97 NEWTONS
Grip strength, set 3 [1, 8]: 4.52 NEWTONS and 4.69 NEWTONS and 5.93 NEWTONS and 5.37 NEWTONS and 6.66 NEWTONS and 3.63 NEWTONS and 4.13 NEWTONS and 6.57 NEWTONS
Plasma IL-6 (Mean ± SD) (plasma IL-6; [5]): 133.48 ± 31.45 pg/mL
Plasma IL-6 (Mean ± SD) (plasma IL-6; [6]): 69.78 ± 11.76 pg/mL
positive effect on IL-6 plasma levels (plasma IL-6; 12 weeks of age, after 2-week treatment-free period): remained significant
Plasma IL-6 (Mean ± SD) (plasma IL-6; [7]): 120.90 ± 6.47 pg/mL
plasma levels of IL-6 (plasma IL-6; CMT mice, AAT 90 mg/kg sc twice a day, P<0.01): reduced
threshold of paw withdrawal compared to the vehicle treated group (CIDP mice [2]; [9]): increased
Von Frey, paw withdrawal threshold (Mean ± SD) (CIDP mice [2]; Day 20 (baseline)): 3.16 ± 0.95 grams
Von Frey, paw withdrawal threshold (Mean ± SD) (CIDP mice [2]; [10]): 5.71 ± 0.41 grams
von Frey test, Paw withdrawal threshold, group MEAN (CIDP mice [2]; Baseline (Day 20)): 3.16 grams
von Frey test, Paw withdrawal threshold, group MEAN (CIDP mice [2]; Day 35): 5.80 grams
von Frey test, Paw withdrawal threshold, Mean/animal (CIDP mice [2]; Baseline (Day 20)): 4.30 grams and 2.10 grams and 2.74 grams and 3.48 grams
von Frey test, Paw withdrawal threshold, Mean/animal (CIDP mice [2]; Day 35): 5.60 grams and 5.24 grams and 6.21 grams and 6.14 grams
von Frey test, Paw withdrawal threshold, set 1 (CIDP mice [2]; Baseline (Day 20)): 4.6 grams and 2.1 grams and 3.3 grams and 4.5 grams
von Frey test, Paw withdrawal threshold, set 2 (CIDP mice [2]; Baseline (Day 20)): 2.4 grams and 1.8 grams and 2.1 grams and 2.2 grams
von Frey test, Paw withdrawal threshold, set 3 (CIDP mice [2]; Baseline (Day 20)): 6.0 grams and 2.4 grams and 2.8 grams and 3.8 grams
von Frey test, Paw withdrawal threshold, set 1 (CIDP mice [2]; Day 35): 5.3 grams and 5.9 grams and 7.7 grams and 5.1 grams
von Frey test, Paw withdrawal threshold, set 2 (CIDP mice [2]; Day 35): 5.1 grams and 3.7 grams and 5.3 grams and 7.0 grams
von Frey test, Paw withdrawal threshold, set 3 (CIDP mice [2]; Day 35): 6.4 grams and 6.1 grams and 5.7 grams and 6.3 grams
grip strength compared to the vehicle treated group (CIDP mice [3]; [9]): increase
Grip strength (Mean ± SD) (CIDP mice [3]; Day 20 (baseline)): 2.89 ± 0.32 newtons
Grip strength (Mean ± SD) (CIDP mice [3]; [10]): 3.59 ± 0.35 newtons
Grip strength, group Mean (CIDP mice [3]; Baseline (Day 20)): 2.89 Newton
Grip strength, group Mean (CIDP mice [3]; Day 35): 3.59 Newton
Grip strength, Mean/animal (CIDP mice [3]; Baseline (Day 20)): 2.46 Newton and 3.19 Newton and 2.83 Newton and 3.08 Newton
Grip strength, Mean/animal (CIDP mice [3]; Day 35): 3.68 Newton and 3.69 Newton and 3.91 Newton and 3.10 Newton
Grip strength, set 1 (CIDP mice [3]; Baseline (Day 20)): 2.92 Newton and 3.06 Newton and 2.89 Newton and 3.50 Newton
Grip strength, set 2 (CIDP mice [3]; Baseline (Day 20)): 2.43 Newton and 2.09 Newton and 2.45 Newton and 2.62 Newton
Grip strength, set 3 (CIDP mice [3]; Baseline (Day 20)): 2.04 Newton and 4.42 Newton and 3.14 Newton and 3.13 Newton
Grip strength, set 1 (CIDP mice [3]; Day 35): 4.92 Newton and 4.55 Newton and 5.15 Newton and 3.47 Newton
Grip strength, set 2 (CIDP mice [3]; Day 35): 3.53 Newton and 2.00 Newton and 3.04 Newton and 2.61 Newton
Grip strength, set 3 (CIDP mice [3]; Day 35): 2.58 Newton and 4.52 Newton and 3.53 Newton and 3.23 Newton
rotarod latency compared to the vehicle treated group (CIDP mice [4]; [9]): increase
Rotarod latency (Mean ± SEM) (CIDP mice [4]; Day 20 (baseline, first treatment day)): 25.96 ± 6.16 s
Rotarod latency (Mean ± SEM) (CIDP mice [4]; [10]): 34.96 ± 9.47 s
Rotarod latency, group Mean (CIDP mice [4]; Baseline (Day 20)): 25.96 s
Rotarod latency, group Mean (CIDP mice [4]; Day 35): 34.96 s
Rotarod latency, Mean/animal (CIDP mice [4]; Baseline (Day 20)): 17.68 s and 29.19 s and 31.82 s and 25.13 s
Rotarod latency, Mean/animal (CIDP mice [4]; Day 35): 38.90 s and 36.28 s and 43.23 s and 21.41 s
Rotarod latency, set 1 (CIDP mice [4]; Baseline (Day 20)): 19.1 s and 28.0 s and 28.7 s and 24.1 s
Rotarod latency, set 2 (CIDP mice [4]; Baseline (Day 20)): 17.7 s and 26.7 s and 33.0 s and 24.0 s
Rotarod latency, set 3 (CIDP mice [4]; Baseline (Day 20)): 16.2 s and 32.9 s and 33.8 s and 27.3 s
Rotarod latency, set 1 (CIDP mice [4]; Day 35): 32.02 s and 44.79 s and 52.44 s and 37.74 s
Rotarod latency, set 2 (CIDP mice [4]; Day 35): 36.34 s and 31.48 s and 34.61 s and 19.21 s
Rotarod latency, set 3 (CIDP mice [4]; Day 35): 48.35 s and 32.56 s and 42.63 s and 7.29 s
